Legend:
PCK rats = test: In vivo study of the effects of lixivaptan on PCK rats; set-up: species or system rat; settings: for % kidney weight/body weight: both genders
Description: A study was performed that examined the effect of lixivaptan (0.5% or 1% w/w lixivaptan in ground rodent chow) on bodyweight, kidney weight, kidney cAMP, urine output, and serum electrolyte concentration in PCK rats, an orthologous animal model of Autosomal Recessive PKD that develops a phenotype reminiscent of ADPKD.
Experimental animals and study design. PCK rats were divided into control and treatment groups at four weeks of age (n=59, ˜10 animals per treatment group and gender). Lixivaptan was dissolved in DMSO and added to ground rodent chow (Regrind Labdiet 5053) at 0.5% or 1.0% concentration (w/w) by homogenous mixing, whereas control animals received the same diet without lixivaptan. Animals were exposed to control- or lixivaptan-diet for eight weeks and were sacrificed at twelve weeks of age.
Experimental Protocol. […] At the end of the dosing period, the animals were weighed and anesthetized with ketamine 90 mg/kg and xylazine 10 mg/kg, IP. Blood samples were obtained by cardiac puncture for determination of plasma electrolytes, creatinine and plasma urea levels. The right kidney and part of the liver were placed into pre-weighed vials containing 10% formaldehyde in phosphate buffer (pH 7.4). The tissues were embedded in paraffin for histological studies. The left kidneys were immediately frozen in liquid nitrogen for determination of cAMP.
Statistical Analysis. Comparisons between groups were analyzed using one-way or two-way analysis of variance (ANOVA) with least significant difference comparisons of the means or student's t-test as appropriate. Data were expressed as means±SD.

[1] = Clinical observation of ALT elevations, 400 mg BID for 7 days; type: in vivo, human; settings: 67 individuals
[2] = PCK rats, 0.5% lixivaptan, compared to control
[3] = PCK rats, 0.5% lixivaptan, compared to control, p=0.08

## Cc1ccc(F)cc1C(=O)Nc1ccc(C(=O)N2Cc3cccn3Cc3ccccc32)c(Cl)c1 [Lixivaptan, 5-fluoro-2-methyl-N-[4-(5H-pyrrolo[2,1-C] [1,4]benzodiazepin-10(11H)-ylcarbonyl)-3-chlorophenyl]benzamide]
PCK rats; PCK rats F, 0.5% Lixivaptan
  24 hr urine week 7: 33.5 ± 8.6 mL
  24 hr urine week 10: 47.7 ± 16.8 mL
  % Kidney/Body Weight: 1.11 ± 0.10 %
  % Liver/Body Weight: 5.72 ± 0.42%
  Kidney Cyst Score: 7.1 ± 4.2 %
  Kidney Fibrosis Score: 2.0 ± 1.1%
  Liver Cyst Score: 3.7 ± 0.8%
  Liver Fibrois Score: 2.7 ± 0.3%
  Liver Weight: 14.5 ± 1.6 g
  Plasma Creatinine: 0.64 ± 0.08 mg/dL
  Plasma Sodium: 145 ± 2 mEq/L
  Plasma Urea: 32.3 ± 3.9 mg/dL
  Total Kidney Weight: 2.82 ± 0.33 g
PCK rats; PCK rats F, 1.0% Lixivaptan
  24 hr urine week 7: 39.7 ± 14.2 mL
  24 hr urine week 10: 54.8 ± 19.3 mL
  % Kidney/Body Weight: 1.75 ± 0.99%
  % Liver/Body Weight: 7.11 ± 2.61%
  Kidney Cyst Score: 11.9 ± 3.1%
  Kidney Fibrosis Score: 2.1 ± 0.8%
  Liver Cyst Score: 6.2 ± 2.7%
  Liver Fibrois Score: 4.1 ± 1.4%
  Liver Weight: 16.8 ± 6.7 g
  Plasma Creatinine: 0.68 ± 0.06 mg/dL
  Plasma Sodium: 143 ± 3 mEq/L
  Plasma Urea: 37.7 ± 10.5 mg/dL
  Total Kidney Weight: 4.14 ± 2.46 g
PCK rats; PCK rats M, 0.5% Lixivaptan
  24 hr urine week 7: 45.5 ± 9.1 mL
  24 hr urine week 10: 53.5 ± 14.3 mL
  % Kidney/Body Weight: 1.37 ± 0.45%
  % Liver/Body Weight: 5.49 ± 0.44%
  Kidney Cyst Score: 7.7 ± 1.7 %
  Kidney Fibrosis Score: 1.8 ± 1.2%
  Liver Cyst Score: 3.2 ± 1.6%
  Liver Fibrois Score: 3.1 ± 1.1%
  Liver Weight: 23.8 ± 2.3 g
  Plasma Creatinine: 0.63 ± 0.07 mg/dL
  Plasma Sodium: 147 ± 4 mEq/L
  Plasma Urea: 32.2 ± 5.8 mg/dL
  Total Kidney Weight: 5.97 ± 2.04 g
PCK rats; PCK rats M, 1.0% Lixivaptan
  24 hr urine week 7: 53.9 ± 7.4 mL
  24 hr urine week 10: 63.7 ± 10.1 mL
  % Kidney/Body Weight: 1.47 ± 0.46%
  % Liver/Body Weight: 5.60 ± 0.61%
  Kidney Cyst Score: 12.0 ± 3.7 %
  Kidney Fibrosis Score: 2.9 ± 1.3%
  Liver Cyst Score: 5.8 ± 1.3%
  Liver Fibrois Score: 4.2 ± 2.0%
  Liver Weight: 22.5 ± 2.7 g
  Plasma Creatinine: 0.67 ± 0.04 mg/dL
  Plasma Sodium: 147 ± 1 mEq/L
  Plasma Urea: 32.3 ± 5.0 mg/dL
  Total Kidney Weight: 5.92 ± 1.95 g
PCK rats; PCK rats, 0.5% lixivaptan
  improvement in cystic phenotype compared to control: 54%
  increase in serum sodium: 1.6%
  % kidney weight/body weight: 1.2%
PCK rats; [2]
  reduction in kidney weight as a percentage of body weight (relative kidney size): 26%
  reduction in liver cyst score: 39%
PCK rats; [3]
  reduction in liver fibrosis score: 20.6%
  reduction in ratio of liver weight vs. body weight: 5.2%
PCK rats; PCK rats, 0.5% lixivaptan, p=0.12
  beneficial effect on kidney fibrosis score: 30%
PCK rats; PCK rats, 0.5% lixivaptan, study week 3 (rats at 7 weeks of age)
  increase in 24 h urine output: 175%
PCK rats; PCK rats, 0.5% lixivaptan, study week 6 (rats at 10 weeks of age)
  increase in 24 h urine output: 189%
PCK rats; PCK rats, 1.0% lixivaptan
  effect on liver pathology: did not separate from control
  improvement in cystic phenotype compared to control: 25%
PCK rats; PCK rats, 1.0% lixivaptan, Study week 3
  increase in urine output: 223%
PCK rats; PCK rats, 1.0% lixivaptan, Study week 6
  increase in urine output: 237%
PCK rats; PCK rats, 1.0% lixivaptan, all animals
  % kidney weight/body weight: 1.6%
PCK rats; PCK rats, 1.0% lixivaptan, three outliers removed
  % kidney weight/body weight: 1.3%
PCK rats; PCK rats, compared to control
  reduction in serum creatinine: 13.2%
[1]
  ALT elevations in treated individuals: no ALT elevations

Reference: US11241441B2, “Formulations of lixivaptan for the treatment of polycystic disease” (PALLADIO BIOSCIENCES, INC., priority 2017, dated 2022)
